# From ChEMBL document CHEMBL1133141, “Synthesis and biological activities of hapalosin derivatives with modification at the C12 position” (2000)
# Key:
# [1] = system: A2780; test: MDR-reversing activity was measured by vincristine accumulation in the multidrug resistant 2780AD, a subline of A2780 ovarian carcinoma cells at 10 µg/mL
# [2] = system: HT-1080; test: Compound was tested for the induction of apoptosis in human fibrosarcoma HT1080 cell line; No induction of apoptosis up to 10 ug/mL; assay type: functional, cell-based
Compound,Vincristine accumulation (% of control) [1] [%],Concentration [2]
COc1ccc(CCN(C)CCCC(C#N)(c2ccc(OC)c(OC)c2)C(C)C)cc1OC (stereo not drawn) [VERAPAMIL],350,
CCCCCCC[C@H]1OC(=O)C[C@@H](O)[C@H](Cc2ccccc2)N(C)C(=O)[C@H](CC(C)C)OC(=O)[C@H]1C,288,No induction
CCCCCCC[C@H]1OC(=O)C[C@@H](O)[C@H](Cc2ccccc2)N(C)C(=O)[C@H](CCSC)OC(=O)[C@H]1C,269,No induction
CCCCCCC[C@H]1OC(=O)C[C@@H](O)[C@H](Cc2ccccc2)N(C)C(=O)[C@H](Cc2ccccc2)OC(=O)[C@H]1C,254,No induction
CCCCCCC[C@H]1OC(=O)C[C@@H](O)[C@H](Cc2ccccc2)N(C)C(=O)[C@H](C(C)C)OC(=O)[C@H]1C [HAPALOSIN],267,No induction
CCCCCCC[C@H]1OC(=O)C[C@@H](O)[C@H](Cc2ccccc2)N(C)C(=O)[C@H](C(C)CC)OC(=O)[C@H]1C (stereo partly drawn),308,No induction
CCCCCCC[C@H]1OC(=O)C[C@@H](O)[C@H](Cc2ccccc2)N(C)C(=O)[C@H](C)OC(=O)[C@H]1C,441,No induction
